In patent US10385024B2, “Compounds and methods for inhibiting NHE-mediated antiport in the treatment of disorders associated with fluid retention or salt overload and gastrointestinal tract disorders” (Ardelyx, Inc., priority 2012, dated 2019):

What was measured:
Plasma PK = type: in vivo, Sprague-Dawley rats; conditions: Sprague-Dawley; rat plasma, oral gavage, nominal dose 30 mg/kg, mean of n=3, sampling 0.5-4 h
Procedure: Sprague-Dawley rats (n=3) were dosed with test compounds by oral gavage. Blood was collected at 0.5, 1, 2 and 4 h via retro-orbital bleeds and processed to plasma using K2EDTA as an anticoagulant. Plasma samples were treated with acetonitrile containing an internal standard and precipitated proteins were removed by centrifugation. Supernatants were analyzed by LC-MS/MS and compound concentrations were determined by interpolation from a calibration curve prepared in plasma. Accurate recovery of quality control samples were confirmed to accept each analytical run.

[1] = Pharmacokinetic evaluation in bile; type: in vivo, Sprague-Dawley rats; conditions: bile duct cannulated rats, oral gavage, nominal dose 30 mg/kg, bile collected over 24 h, mean of n=3
Procedure: Bile duct cannulated (BDC) Sprague-Dawley rats were dosed with test compounds by oral gavage and a single aliquot of bile was collected via cannula over the 24 h following dosing. Bile samples were treated with acetonitrile and precipitated proteins were removed by centrifugation. Some compounds required liquid-liquid extraction using MTBE. After centrifugation, samples were diluted as appropriate in mobile phase and analyzed by LC-MS/MS. The concentrations of compounds in bile were determined by interpolation from a standard calibration curve prepared in rat bile from untreated BDC rats. Accurate recovery of quality control samples was confirmed to accept each analytical run. Concentration in bile is reported in nM and represents the mean result from n=3 rats.

human NHE-3 = target: T1, human NHE-3 (Homo sapiens, UniProt P48764); test: Cell-based assay of NHE-3 activity (human NHE3 inhibition assay); conditions: OK cells with human NHE-3 gene, BCECF pH dye, 0-30 μM test compound; read-out: Human NHE3 pIC50 (converted)
T1 construct: expressed in transfected cells; host or cells: Opossum kidney (OK) cells (ATCC), transfected by electroporation
T1 sequence (P48764 26-834): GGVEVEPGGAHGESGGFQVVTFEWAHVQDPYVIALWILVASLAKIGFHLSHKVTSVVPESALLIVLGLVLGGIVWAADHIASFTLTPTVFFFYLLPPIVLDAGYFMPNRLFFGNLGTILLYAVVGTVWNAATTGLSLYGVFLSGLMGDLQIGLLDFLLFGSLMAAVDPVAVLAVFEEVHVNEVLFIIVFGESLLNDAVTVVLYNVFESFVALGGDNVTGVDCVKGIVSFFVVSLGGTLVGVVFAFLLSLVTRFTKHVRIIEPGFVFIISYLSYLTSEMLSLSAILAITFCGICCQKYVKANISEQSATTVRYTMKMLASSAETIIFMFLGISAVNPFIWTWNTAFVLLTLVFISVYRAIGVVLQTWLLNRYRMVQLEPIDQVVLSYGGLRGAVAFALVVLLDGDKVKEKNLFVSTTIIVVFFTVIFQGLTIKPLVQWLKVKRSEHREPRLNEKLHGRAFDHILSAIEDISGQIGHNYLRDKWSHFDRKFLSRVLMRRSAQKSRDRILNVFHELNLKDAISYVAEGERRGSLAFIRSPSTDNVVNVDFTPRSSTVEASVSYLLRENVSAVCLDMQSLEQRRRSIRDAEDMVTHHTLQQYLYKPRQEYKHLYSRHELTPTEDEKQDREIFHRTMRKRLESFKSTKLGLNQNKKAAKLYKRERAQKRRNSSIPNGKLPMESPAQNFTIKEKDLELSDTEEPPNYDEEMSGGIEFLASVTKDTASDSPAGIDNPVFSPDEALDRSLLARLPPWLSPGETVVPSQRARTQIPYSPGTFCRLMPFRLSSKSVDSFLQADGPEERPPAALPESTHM
Summary of the method: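 Opossum kidney cells electroporated with rat or human NHE-3, loaded with 5 μM BCECF-AM in NH4Cl-HEPES pH 7.4 for 30 min at RT, then acidified 10 min in Na+-free choline HEPES. Na+-dependent pH recovery rates from BCECF fluorescence, averaged over ≥2 replicates, gave pIC50.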

With `CN1Cc2c(Cl)cc(Cl)cc2[C@H](c2cccc(S(=O)(=O)NCCOCCOCCNC(=O)CCC(CCC(=O)NCCOCCOCCNS(=O)(=O)c3cccc([C@@H]4CN(C)Cc5c(Cl)cc(Cl)cc54)c3)(CCC(=O)NCCOCCOCCNS(=O)(=O)c3cccc([C@@H]4CN(C)Cc5c(Cl)cc(Cl)cc54)c3)NC(=O)NCC(=O)O)c2)C1` [Example 7, 18-(3-((S)-6,8-dichloro-2-methyl-1,2,3,4-tetrahydroisoquinolin-4-yl)phenylsulfonamido)-6,6-bis(3-(2-(2-(2-(3-((S)-6,8-dichloro-2-methyl-1,2,3,4-tetrahydroisoquinolin-4-yl)phenylsulfonamido)ethoxy)ethoxy)ethylamino)-3-oxopropyl)-4,9-dioxo-13,16-dioxa-3,5,10-triazaoctadecan-1-oic acid] as the molecule, how does the AUC (Plasma PK) read?
The AUC was less than 8 ng·h/mL.

What about the Cmax (Plasma PK) of the same molecule?
The Cmax was less than 2 ng/mL.

What about the “Concentration in Bile” value [1] of the same molecule?
Its value is 19 nM.

What about the IC50 (human NHE-3) of the same molecule?
The IC50 was less than 100 nM.

Which AUC (Plasma PK) does the source give for `CN1Cc2c(Cl)cc(Cl)cc2[C@H](c2cccc(S(=O)(=O)NCCOCCOCCNC(=O)CCC(CCC(=O)NCCOCCOCCNS(=O)(=O)c3cccc([C@@H]4CN(C)Cc5c(Cl)cc(Cl)cc54)c3)(CCC(=O)NCCOCCOCCNS(=O)(=O)c3cccc([C@@H]4CN(C)Cc5c(Cl)cc(Cl)cc54)c3)N(C)C)c2)C1` [Example 4, N^1,N^7-bis(2-(2-(2-(3-((S)-6,8-dichloro-2-methyl-1,2,3,4-tetrahydroisoquinolin-4-yl)phenylsulfonamido)ethoxy)ethoxy)ethyl)-4-(3-(2-(2-(2-(3-((S)-6,8-dichloro-2-methyl-1,2,3,4-tetrahydroisoquinolin-4-yl)phenylsulfonamido)ethoxy)ethoxy)ethylamino)-3-oxopropyl)-4-(dimethylamino)heptanediamide] here?
Its AUC is less than 13 ng·h/mL.

What about the Cmax (Plasma PK) of the same molecule?
Its Cmax is less than 5 ng/mL.

And the “Concentration in Bile” value [1]?
Its value is 45 nM.

And the IC50 (human NHE-3)?
The IC50 was less than 100 nM.
